“And” between values parts separate entries of the source, which are not always exact repeats. Equal values may be shown once. Read-outs that look alike come from different tables or passages of the source.
Tests used:
[1] = system: myo-inositol dehydrogenase; conditions: enzyme produced by yeast Cryptococcus melibiosum, cited from earlier work
[2] = system: myo-inositol dehydrogenase; experiment: Km-value measurement for substrate and coenzymes; type: biochemical, Bacillus sp. No. 3
Procedure: Km-value for myo-inositol is measured at various concentrations of myo-inositol in a reaction mixture of:
Further in the reaction mixture, 1 mM NAD is replaced by 1 mM thio-NAD (Sigma Co. ) and the Km-value for myo-inositol is measured. The result is Km-value: 10.0 mM (myo-inositol).
Km-value in the reaction of NADP and myo-inositol are measured. The results are as follows:
Km-values in the reaction of the thio-NADP and myo-inositol are as follows: […]

[3] = system: myo-inositol dehydrogenase; experiment: Substrate specificity of myo-inositol dehydrogenase; type: biochemical, Bacillus sp. No. 3; conditions: myo-inositol = 100%
Procedure: 1. Substrate specificity:
The above reaction mixture (1 ml) is incubated in a small test tube at 37° C. for 5 mins. Diluted enzyme solution (0.02 ml) is added and the mixture is stirred to initiate the reaction. After exactly 10 mins., 0.1N HCl (2.0 ml) was added and the mixture is stirred to stop the reaction. Absorption at 550 nm (A550 nm) is measured to obtain absorption A1. The assay was repeated using the above reaction mixture except that myo-inositol was not included. The mixture is also treated in the same manner as described above and its absorption Ao was measured.
(3) Calculation of enzyme activity: [formula] wherein

[4] = system: myo-inositol dehydrogenase; experiment: Relative activity with coenzyme thio-NAD compared to NAD; type: biochemical, Bacillus sp. No. 3

| Compound | Substrate specificity (relative activity) [3] [%] | other results |
| --- | --- | --- |
| NC(=O)c1ccc[n+]([C@@H]2O[C@H](COP(=O)([O-])OP(=O)(O)OC[C@H]3O[C@@H](n4cnc5c(N)ncnc54)[C@H](O)[C@@H]3O)[C@@H](O)[C@H]2O)c1 [NAD, nicotinamide adenine dinucleotide] |  | Km ([1]; read-out: Km value for NAD): ~0.07 mM |
| NC(=O)c1ccc[n+]([C@@H]2O[C@H](COP(=O)([O-])OP(=O)(O)OC[C@H]3O[C@@H](n4cnc5c(N)ncnc54)[C@H](OP(=O)(O)O)[C@@H]3O)[C@@H](O)[C@H]2O)c1 [NADP, nicotinamide adenine dinucleotide phosphate] |  | Km ([2]; reaction of NADP and myo-inositol, read-out: Km-value (NADP)): 190 µM |
| O=C(CO)[C@@H](O)[C@H](O)[C@H](O)CO [fructose] | 0 |  |
| OC[C@H]1O[C@@H](O[C@H]2[C@H](O)[C@@H](O)C(O)O[C@@H]2CO)[C@H](O)[C@@H](O)[C@H]1O (stereo partly drawn) [lactose] | 0 |  |
| OC[C@H]1O[C@H](O[C@H]2[C@H](O)[C@@H](O)[C@H](O)O[C@@H]2CO)[C@H](O)[C@@H](O)[C@@H]1O [maltose] | 0 |  |
| O[C@H]1[C@H](O)[C@@H](O)[C@H](O)[C@@H](O)[C@H]1O [myo-inositol] | 100 | Km ([2]; coenzyme 1 mM NAD, Tris-HCl buffer pH 8.5, read-out: Km-value (myo-inositol)): 640 µM and ~600 µM; Km ([2]; coenzyme 1 mM thio-NAD, read-out: Km-value (myo-inositol)): 10000 µM; Km ([2]; reaction of NADP and myo-inositol, read-out: Km-value (myo-inositol)): 30900 µM; Km ([1]; read-out: Km value for myo-inositol): ~11 mM |
| OC[C@H]1O[C@@](CO)(O[C@H]2O[C@H](CO)[C@@H](O)[C@H](O)[C@H]2O)[C@@H](O)[C@@H]1O [saccharose] | 0 |  |
| OC[C@@H](O)[C@@H](O)[C@H](O)[C@@H](O)CO [sorbitol] | 0 |  |
| NC(=S)c1ccc[n+]([C@@H]2O[C@H](COP(=O)([O-])OP(=O)(O)OC[C@H]3O[C@@H](n4cnc5c(N)ncnc54)[C@H](O)[C@@H]3O)[C@@H](O)[C@H]2O)c1 [thio-NAD, thionicotinamide adenine dinucleotide] |  | Km ([2]; 150 mM myo-inositol, read-out: Km-value (thio-NAD)): 170 µM; Relative activity when coenzyme thio-NAD is used, as compared to NAD [4]: 10-15% |
| NC(=S)c1ccc[n+]([C@@H]2O[C@H](COP(=O)([O-])OP(=O)(O)OC[C@H]3O[C@@H](n4cnc5c(N)ncnc54)[C@H](OP(=O)(O)O)[C@@H]3O)[C@@H](O)[C@H]2O)c1 [thio-NADP, thionicotinamide adenine dinucleotide phosphate] |  | Km ([2]; reaction of thio-NADP and myo-inositol, read-out: Km-value (thio-NADP)): 2540 µM |
| galactose | 0 |  |
| glucose | 0 |  |
| mannose | 0 |  |
